Measurements as given in patent US20140163099A1, “ANTIMICROBIAL COMPOSITION” (TAKASAGO INTERNATIONAL CORPORATION, priority 2011, published 2014).

Key:
Type in all cases: cell-based
[1] = test system: Corynebacterium minutissimum (NBRC15361T); assay: Growth inhibition activity (MIC, agar) against aerobic bacteria; details: strain NBRC15361T; Mueller Hinton Agar, 37 degrees C. overnight
Experimental: (§1) In the present invention, the growth inhibition activity, which is an indicator of the antimicrobial activity, is evaluated by determining the Minimum Inhibitory Concentration (MIC) with an agar or liquid medium.
(§2) In the test for the growth inhibition activity, the following strains were used as skin-related bacteria: • Staphylococcus epidermidis: Staphylococcus epidermidis (JCM2414T and ATCC 12228) • Staphylococcus aureus: Staphylococcus aureus (NBRC12732 and JCM2151) • Skin indigenous bacteria which introduce a superficial infection: Corynebacterium minutissimum (NBRC15361T) • Armpit odor-causing bacteria: Corynebacterium xerosis (JCM1324)
(§3) The test strains were cultured in the liquid medium which the Bioresource center recommends, and then the test strains were subcultured to a Mueller Hinton Broth (Difco) at 30 degrees C. The grown bacteria were diluted to 10^6 CFU/ml with saline to adjust the bacteria fluids for inoculation.
(§4) Furthermore, in order to examine the growth inhibition activities against the bacteria by the above cooling agents, the concentration of the cooling agents: (3S)-CA20, (3R)-CA20, CA1, CA5, CA15, CA55 or CA MGH was diluted with ethanol to the required level of concentration for the determining the Minimum Inhibitory Concentration to produce the sample liquids.
(§5) Next, 100 μL of each sample liquid was added to 10 mL of a Mueller Hinton Agar (Difco) agar medium solution in a soluble state, and each agar medium solution was poured into a petri dish and solidified to prepare test plates having several concentrations of the sample liquids (several concentrations of the above cooling agents). Subsequently, 5 μL of the above bacteria fluids for inoculation were stamped on the test plates, and then the test plates were cultured at 37 degrees C. overnight.
(§6) In this way, the growth inhibition activities by (3S)-CA20, (3R)-CA20, CA1, CA5, CA15, CA55, CA MGH were examined. The minimum concentration of the cooling agent in which the growth of bacteria could not be confirmed was considered as the MIC (Minimum Inhibitory Concentration).
(§7) The minimum concentration of the cooling agent in which the grown strain could not be confirmed was considered as the MIC (Minimum Inhibitory Concentration).

[2] = test system: Corynebacterium xerosis (JCM1324); assay: as above; details: strain JCM1324; Mueller Hinton Agar, 37 degrees C. overnight
Experimental: as §1, §2, §3, §4, §5, §6, §7

[3] = test system: Staphylococcus aureus (JCM2151); assay: as above; details: strain JCM2151; Mueller Hinton Agar, 37 degrees C. overnight
Experimental: as §1, §2, §3, §4, §5, §6, §7

[4] = test system: Staphylococcus aureus (NBRC12732); assay: as above; details: strain NBRC12732; Mueller Hinton Agar, 37 degrees C. overnight
Experimental: as §1, §2, §3, §4, §5, §6, §7

[5] = test system: Staphylococcus epidermidis (JCM2414T); assay: as above; details: strain JCM2414T; Mueller Hinton Agar, 37 degrees C. overnight
Experimental: as §1, §2, §3, §4, §5, §6, §7

[6] = test system: Bacillus subtilis (NBRC3134); assay: as above; details: strain NBRC3134; Mueller Hinton Agar, 37 degrees C. overnight
Experimental: as §1
(§8) Furthermore, the following bacteria were also used as other general aerobic bacteria: • Escherichia coli: Escherichia coli (NBRC3972) • Pseudomonas aeruginosa: Pseudomonas aeruginosa (NBRC13275) • Bacteria in intestines: Proteus vulgaris (NBRC3167) • Pneumobacillus: Klebsiella pneumoniae (NBRC13277) • Bacillus subtilis: Bacillus subtilis (NBRC3134)
as §3, §4, §5, §6, §7

[7] = test system: Escherichia coli (NBRC3972); assay: as above; details: strain NBRC3972; Mueller Hinton Agar, 37 degrees C. overnight
Experimental: as §1, §8, §3, §4, §5, §6, §7

[8] = test system: Klebsiella pneumoniae (NBRC13277); assay: as above; details: strain NBRC13277; Mueller Hinton Agar, 37 degrees C. overnight
Experimental: as §1, §8, §3, §4, §5, §6, §7

[9] = test system: Proteus vulgaris (NBRC3167); assay: as above; details: strain NBRC3167; Mueller Hinton Agar, 37 degrees C. overnight
Experimental: as §1, §8, §3, §4, §5, §6, §7

[10] = test system: Pseudomonas aeruginosa (NBRC13275); assay: as above; details: strain NBRC13275; Mueller Hinton Agar, 37 degrees C. overnight
Experimental: as §1, §8, §3, §4, §5, §6, §7

[11] = test system: Actinomyces naeslundii (JCM8350); assay: Growth inhibition activity (MIC, agar) against anaerobic bacteria; details: strain JCM8350; Trypticase Soy Broth agar, 37 degrees C. for 3 days
Experimental: as §1
(§9) In the test for growth inhibition activity, the following strains were used: • Acne bacteria: Propionibacterium acnes (JCM6473) and (ATCC6919) • Abscess bacteria: Bacteroides fragilis (GAI5560) • Cavity-causing bacteria: Streptococcus mutans (JCM5175), Actinomyces naeslundii (JCM8350) and Actinomyces viscosus (JCM8352) • Periodontal pathogen: Fusobacterium nucleatum (JCM6328), Porphyromonas gingivalis (JCM8525), Prevotella nigrescens (JCM6322)
(§10) The test strains were cultured in a GAM medium (Nissui Pharmaceutical Co., LTD), a Schaedler Broth (BBL) or a Trypticase Soy Broth (BBL) liquid medium, and then the grown bacteria were diluted in saline to prepare turbidity 0.5 McFarland of the bacteria fluids for inoculation. The bacteria were cultured at 37 degrees C. for 3 days under an anaerobic condition by using AnaeroPack® from MGC.
as §4, with “cooling agent,” for “cooling agents,”, “of concentrations” for “of concentration”
(§11) Next, 100 μL of each sample liquid was added to 10 mL of a Trypticase Soy Broth agar medium solution in a soluble state, and each agar medium solution was poured into a petri dish and solidified, to prepare the test plates. Subsequently, 5 μL of above the bacteria fluids for inoculation were stamped on the test plates, and then the test plates were cultured at 37 degrees C. for 3 days.
(§12) The minimum concentration of the cooling agent in which the growth of bacteria could not be confirmed was considered as the MIC (Minimum Inhibitory Concentration).
as §12

[12] = test system: Actinomyces viscosus (JCM8352); assay: as above; details: strain JCM8352; Trypticase Soy Broth agar, 37 degrees C. for 3 days
Experimental: as §1, §9, §10
as §4, with “cooling agent,” for “cooling agents,”, “of concentrations” for “of concentration”
as §11, §12, §12

[13] = test system: Bacteroides fragilis (GAI5560); assay: as above; details: strain GAI5560; Trypticase Soy Broth agar, 37 degrees C. for 3 days
Experimental: as §1, §9, §10
as §4, with “cooling agent,” for “cooling agents,”, “of concentrations” for “of concentration”
as §11, §12, §12

[14] = test system: Porphyromonas gingivalis (JCM8525); assay: as above; details: strain JCM8525; Trypticase Soy Broth agar, 37 degrees C. for 3 days
Experimental: as §1, §9, §10
as §4, with “cooling agent,” for “cooling agents,”, “of concentrations” for “of concentration”
as §11, §12, §12

[15] = test system: Prevotella nigrescens (JCM6322); assay: as above; details: strain JCM6322; Trypticase Soy Broth agar, 37 degrees C. for 3 days
Experimental: as §1, §9, §10
as §4, with “cooling agent,” for “cooling agents,”, “of concentrations” for “of concentration”
as §11, §12, §12

[16] = test system: Propionibacterium acnes (ATCC6919); assay: as above; details: strain ATCC6919; Trypticase Soy Broth agar, 37 degrees C. for 3 days
Experimental: as §1, §9, §10
as §4, with “cooling agent,” for “cooling agents,”, “of concentrations” for “of concentration”
as §11, §12, §12

[17] = test system: Propionibacterium acnes (JCM6473); assay: as above; details: strain JCM6473; Trypticase Soy Broth agar, 37 degrees C. for 3 days
Experimental: as §1, §9, §10
as §4, with “cooling agent,” for “cooling agents,”, “of concentrations” for “of concentration”
as §11, §12, §12

[18] = test system: Streptococcus mutans (JCM5175); assay: as above; details: strain JCM5175; Trypticase Soy Broth agar, 37 degrees C. for 3 days
Experimental: as §1, §9, §10
as §4, with “cooling agent,” for “cooling agents,”, “of concentrations” for “of concentration”
as §11, §12, §12

Compound	MIC (Minimum Inhibitory Concentration) [1]	MIC (Minimum Inhibitory Concentration) [2]	MIC (Minimum Inhibitory Concentration) [3]	MIC (Minimum Inhibitory Concentration) [4]	MIC (Minimum Inhibitory Concentration) [5]	MIC (Minimum Inhibitory Concentration) [6]	MIC (Minimum Inhibitory Concentration) [7]	MIC (Minimum Inhibitory Concentration) [8]	MIC (Minimum Inhibitory Concentration) [9]	MIC (Minimum Inhibitory Concentration) [10]	MIC (Minimum Inhibitory Concentration) [11]	MIC (Minimum Inhibitory Concentration) [12]	MIC (Minimum Inhibitory Concentration) [13]	MIC (Minimum Inhibitory Concentration) [14]	MIC (Minimum Inhibitory Concentration) [15]	MIC (Minimum Inhibitory Concentration) [16]	MIC (Minimum Inhibitory Concentration) [17]	MIC (Minimum Inhibitory Concentration) [18]
CC(O)CC(=O)OC1CC(C)CCC1C(C)C [(3R)-CA20, menthyl 3-hydroxybutanoate]	200 ppm	100 ppm	100 ppm	200 ppm	200 ppm	200 ppm	>1600 ppm	200 ppm	>1600 ppm	>1600 ppm	200 ppm	100 ppm	100 ppm	100 ppm	200 ppm	400 ppm	200 ppm	200 ppm
N-alkyl-p-menthane-3-carboxamide [WS-3, reference compound]	>1600 ppm	>1600 ppm	>1600 ppm	>1600 ppm	>1600 ppm	>1600 ppm	>1600 ppm	>1600 ppm	>1600 ppm	>1600 ppm	>1600 ppm	>1600 ppm	>1600 ppm	200 ppm	>1600 ppm	>1600 ppm	>1600 ppm	>1600 ppm
